Experimental findings from PubChem BioAssay (NCI) are described below.

Some test systems named below: M14 melanoma; HOP-92 NSCLC; SN12C renal; CCRF-CEM leukemia; HCC-2998 colon; UO-31 renal; K-562 leukemia; A549 NSCLC; OVCAR-4 ovarian.
Common to all, as to assay: growth of human tumour cells (NCI), 48 h

Each structure is given as a SMILES string.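 Each compound was tested at five concentrations against cells in 96-well plates for 48 hours. TGI marks complete inhibition of growth.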

As for `O=C(O)/C(=C/C=C/c1ccccc1)c1csc(-c2nc(/C(=C\C=C\c3ccccc3)C(=O)O)cs2)n1`, the TGI in the test with M14 melanoma is 61 µM; with HOP-92 NSCLC, 59.9 µM; in the test on SN12C renal it was more than 100 µM; in the test on CCRF-CEM leukemia, 45.6 µM; in the test with HCC-2998 colon, 59.7 µM; in the test with UO-31 renal, 59.6 µM. In addition, the TGI is 54.6 µM with K-562 leukemia and more than 100 µM with A549 NSCLC.
For `S=c1cc(S)sc2c1c(=S)sc1nc3ccccn3c(=S)c12`, the TGI in the test on M14 melanoma, in the test on HOP-92 NSCLC, with SN12C renal, with CCRF-CEM leukemia, in the test with HCC-2998 colon and in the test on UO-31 renal was more than 100 µM each time. In addition, the TGI with K-562 leukemia, with OVCAR-4 ovarian and with A549 NSCLC was more than 100 µM throughout.
`O=C(Cn1ccnc1[N+](=O)[O-])c1ccc(F)cc1`: the TGI with M14 melanoma, in the test with HOP-92 NSCLC, in the test with SN12C renal, in the test on CCRF-CEM leukemia, in the test on UO-31 renal and in the test with K-562 leukemia was more than 100 µM each time. For the same compound, the TGI in the test with OVCAR-4 ovarian and with A549 NSCLC was more than 100 µM throughout.
Regarding `COC1OC(COCc2ccc(Cl)cc2)C(OCc2ccc(Cl)cc2)C1N=[N+]=[N-]` (stereo not drawn), the TGI in the test on M14 melanoma, in the test on HOP-92 NSCLC, in the test on SN12C renal, with HCC-2998 colon, in the test with UO-31 renal and in the test with K-562 leukemia was more than 100 µM each time. The TGI was more than 100 µM in the test with OVCAR-4 ovarian and 16 µM in the test with A549 NSCLC.
Consider `C1=CC=C2NCCCNC3=CC=CC=CC3=NCCCN=C2C=C1`, for which the TGI with M14 melanoma, in the test with HOP-92 NSCLC, in the test with SN12C renal, in the test on CCRF-CEM leukemia, in the test on HCC-2998 colon and with UO-31 renal was more than 100 µM throughout. Also, the TGI in the test on K-562 leukemia, in the test with OVCAR-4 ovarian and with A549 NSCLC was more than 100 µM throughout.
For `CC(C)(C)c1cc2c3c(c1)C(C(F)(F)F)(C(F)(F)F)O[Te]3(C)OC2(C(F)(F)F)C(F)(F)F`, the TGI in the test on M14 melanoma, in the test with SN12C renal, with CCRF-CEM leukemia, in the test with HCC-2998 colon, with UO-31 renal and in the test on K-562 leukemia was more than 100 µM each time. Also, the TGI with OVCAR-4 ovarian and in the test with A549 NSCLC was more than 100 µM each time.
For `CC(=O)OC(CCC1(C)OC1COc1ccc(CCNC(=O)c2ccccc2)cc1)C(C)(C)OC(C)=O` (stereo not drawn), the TGI in the test with M14 melanoma is 30.1 µM; with HOP-92 NSCLC, more than 100 µM; in the test on SN12C renal it was more than 100 µM; with CCRF-CEM leukemia, more than 100 µM; in the test on UO-31 renal it was more than 100 µM; in the test on K-562 leukemia, more than 100 µM. For the same compound, the TGI in the test with OVCAR-4 ovarian and in the test on A549 NSCLC was more than 100 µM each time.
On to `CC1(C)Cc2cc(C(=O)O)c3c(c2C1=O)COCC3`, for which the TGI in the test with M14 melanoma, in the test on SN12C renal, in the test with CCRF-CEM leukemia, in the test with HCC-2998 colon, in the test on UO-31 renal and in the test with K-562 leukemia was more than 100 µM in each case. Further, the TGI in the test with OVCAR-4 ovarian and in the test on A549 NSCLC was more than 100 µM throughout.
Consider `O=CC[C@H]1CCc2ccccc2C12CCC(=O)CC2`, for which the TGI in the test with M14 melanoma, with HOP-92 NSCLC, in the test on SN12C renal, in the test on CCRF-CEM leukemia, with HCC-2998 colon and in the test with UO-31 renal was more than 100 µM in each case. The TGI with K-562 leukemia, in the test on OVCAR-4 ovarian and with A549 NSCLC was more than 100 µM each time.
Consider `CCc1cccc(C(C)C)c1NC(=O)C(=O)C(CC(=O)Nc1ccc(Cl)c(Cl)c1)C(=O)OC` (stereo not drawn), for which the TGI in the test on M14 melanoma, in the test with HOP-92 NSCLC, with SN12C renal, in the test on CCRF-CEM leukemia, in the test with HCC-2998 colon and with UO-31 renal was more than 100 µM each time. The TGI with K-562 leukemia, with OVCAR-4 ovarian and with A549 NSCLC was more than 100 µM throughout.
On to `Cc1cc(C)nc(NS(=O)(=O)c2ccc(Nc3c4ccc(Cl)cc4nc4c(C(=O)Nc5ccc(S(N)(=O)=O)cc5)cccc34)cc2)n1`, for which the TGI in the test on M14 melanoma is 34.7 µM; in the test on SN12C renal, 30.2 µM; in the test on CCRF-CEM leukemia, more than 100 µM; with HCC-2998 colon, 30.9 µM; in the test on UO-31 renal it was 39.2 µM; in the test on K-562 leukemia, more than 100 µM. The TGI with OVCAR-4 ovarian turned out to be 55.5 µM.
Consider `CN(C)CCNC(=O)c1cccc2c1nc(-c1ccccc1)c1ccccc12`, for which the TGI with M14 melanoma was 4.34 µM; in the test on HOP-92 NSCLC it was 9.24 µM; in the test with SN12C renal, 15.2 µM; in the test with CCRF-CEM leukemia, 10.1 µM; in the test on HCC-2998 colon, 15.9 µM; with UO-31 renal, 6.17 µM. Moreover, the results for the TGI in the test on K-562 leukemia, in the test with OVCAR-4 ovarian and with A549 NSCLC were 6.32 µM, 17.7 µM and 15 µM, respectively.
In the case of `CCc1cccc(C(C)C)c1N1C(=O)C(=O)C(c2nc3ccccc3s2)C(=O)C1=O`, the TGI in the test on M14 melanoma is more than 50 µM; with HOP-92 NSCLC it was more than 50 µM; with SN12C renal, more than 50 µM; with CCRF-CEM leukemia, more than 42.1 µM; in the test on HCC-2998 colon, more than 50 µM; with UO-31 renal, more than 50 µM. Besides, the TGI with K-562 leukemia, in the test on OVCAR-4 ovarian and in the test on A549 NSCLC was more than 50 µM throughout.
With `Clc1ccc(C2SCc3nc4ccccc4n32)cc1Cl` (stereo not drawn), the TGI in the test with M14 melanoma was 27.2 µM; with HOP-92 NSCLC it was 27.4 µM; in the test with SN12C renal, 26 µM; in the test with CCRF-CEM leukemia, more than 100 µM; in the test with K-562 leukemia, more than 100 µM; in the test with OVCAR-4 ovarian, 25.8 µM. The same compound displayed a TGI in the test with A549 NSCLC of 32.6 µM.
`CC1C[C@@H]2C(=O)NC(=O)[C@@H]2c2c1c1ccccc1n2C` (stereo partly drawn): the TGI with M14 melanoma, in the test with HOP-92 NSCLC, with SN12C renal, in the test with CCRF-CEM leukemia, with HCC-2998 colon and in the test on UO-31 renal was more than 100 µM throughout. Moreover, the TGI in the test on K-562 leukemia and with A549 NSCLC was more than 100 µM throughout.
On to `C=C(Br)N(CC)CC`, for which the TGI in the test on M14 melanoma, with HOP-92 NSCLC, with SN12C renal, in the test with CCRF-CEM leukemia, in the test with HCC-2998 colon and in the test on UO-31 renal was more than 100 µM each time. Also, the TGI in the test on K-562 leukemia, in the test with OVCAR-4 ovarian and with A549 NSCLC was more than 100 µM throughout.
